Measured values reported in US10952433B2, “Solutions for enhancing the effectiveness of insecticides and fungicides on living plants and related methods” (priority 2015, dated 2021).
Where two headings read alike, the source gives them in different places.

Assays:
Gypsy Moth Catepillar = experiment: Gypsy moth caterpillar damage to white oak seedlings after hand spray (Table 5); format: in vivo, gypsy moth (on white oak seedlings)
Procedure: The particular solutions tested were applied to a stem of the white oak seedling using a low volume hand spray and spraying 20 milliliters per seedling. A total of 20 seedlings were tested. […] At permethrin concentration of 50 ppm, the damage after one month was 30% and with 100 ppm used alone, the damage was 0. When buffered amine oxide system No. 3 was employed in concentrations of 400:1 with 10 ppm of the insecticide, the gypsy moth caterpillar damage was 10% and when a concentration of 200:1 was employed with 10 ppm insecticide, the damage was 0.

[1] = system: lepidopteran larvae: cabbage loopers (Trichoplusia ni) and beet armyworms (Spodoptera exigua); format: in vivo; settings: plants
Procedure, shortened: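 Romaine lettuce plants 2-3 inches tall were sprayed with 10 mL of insecticide (ppm) with buffer, amine oxide or buffered amine oxide at 200:1, then infested with 15 T. ni and 15 S. exigua larvae (5th-6th instar) per container. Leaf surface damage scored visually in 5% increments after 24 h.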

[2] = system: lepidopteran larvae: cabbage loopers (Trichoplusia ni) and beet armyworms (Spodoptera exigua); format: in vivo; settings: leaf discs
Procedure, shortened: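 Romaine lettuce leaf discs (⅝ inch) dipped about one second in treatment solution and infested with four cabbage loopers and four beet armyworms (3rd-4th instar) per container. Held dark at 15 °C, 80% RH; percent disc-area damage scored visually in 5% increments at 24, 48 and 72 h.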

[3] = insecticide + CO3 buffer 200:1, no amine oxide, PPM: Chlorantranilopril 60, Acephate 70, Methoxyfenozide 100, Spinosad 30, Permethrin 10, Indoxacarb 50
[4] = insecticide + PO4 buffer 200:1, no amine oxide, PPM: Chlorantranilopril 60, Acephate 70, Methoxyfenozide 100, Spinosad 30, Permethrin 10, Indoxacarb 50
[5] = insecticide + amine oxide 12, no buffer, 200:1, PPM: Chlorantranilopril 60, Acephate 70, Methoxyfenozide 100, Spinosad 30, Permethrin 10, Indoxacarb 50
[6] = insecticide + amine oxide 1218, no buffer, 200:1, PPM: Chlorantranilopril 60, Acephate 70, Methoxyfenozide 100, Spinosad 30, Permethrin 10, Indoxacarb 50
[7] = insecticide + buffered amine oxide system CO3, 12, 200:1, PPM: Chlorantranilopril 60, Acephate 70, Methoxyfenozide 100, Spinosad 30, Permethrin 10, Indoxacarb 50
[8] = insecticide + buffered amine oxide system CO3, 1218, 200:1, PPM: Chlorantranilopril 60, Acephate 70, Methoxyfenozide 100, Spinosad 30, Permethrin 10, Indoxacarb 50
[9] = insecticide + buffered amine oxide system PO4, 12, 200:1, PPM: Chlorantranilopril 60, Acephate 70, Methoxyfenozide 100, Spinosad 30, Permethrin 10, Indoxacarb 50
[10] = insecticide + buffered amine oxide system PO4, 1218, 200:1, PPM: Chlorantranilopril 60, Acephate 70, Methoxyfenozide 100, Spinosad 30, Permethrin 10, Indoxacarb 50
[11] = insecticide alone, highest, PPM: Chlorantranilopril 120, Acephate 140, Methoxyfenozide 200, Spinosad 60, Permethrin 20, Indoxacarb 100
[12] = insecticide alone, increased, PPM: Chlorantranilopril 90, Acephate 105, Methoxyfenozide 150, Spinosad 45, Permethrin 15, Indoxacarb 75
[13] = insecticide alone, PPM: Chlorantranilopril 60, Acephate 70, Methoxyfenozide 100, Spinosad 30, Permethrin 10, Indoxacarb 50

For CC1(C)C(C=C(Cl)Cl)C1C(=O)OCc1cccc(Oc2ccccc2)c1 (stereo not drawn) [Permethrin], the “Percent Gypsy Moth Catepillar Damage to White Oak 1 Month After Application” value (“Percent Gypsy Moth Catepillar Damage” for short) (Gypsy Moth Catepillar; Permethrin 10 PPM + buffered amine oxide system 3, amine oxide 12, 200:1) was 0%, the “Percent Gypsy Moth Catepillar Damage” value (Gypsy Moth Catepillar; Permethrin 10 PPM + buffered amine oxide system 3, amine oxide 12, 400:1) was 10% and the “Percent Gypsy Moth Catepillar Damage” value (Gypsy Moth Catepillar; Permethrin 10 PPM + buffered amine oxide system 4, amine oxide 12, 200:1) was 0%. The “Percent Gypsy Moth Catepillar Damage” value (Gypsy Moth Catepillar; Permethrin 10 PPM + buffered amine oxide system 4, amine oxide 12, 400:1) was 10%, the “Percent Gypsy Moth Catepillar Damage” value (Gypsy Moth Catepillar; Permethrin 10 PPM alone) was 80% and the “Percent Gypsy Moth Catepillar Damage” value (Gypsy Moth Catepillar; Permethrin 50 PPM alone) was 30%. For the same compound, the “Percent Gypsy Moth Catepillar Damage” value (Gypsy Moth Catepillar; Permethrin 100 PPM alone) was 0%, the “Percent Lepidopteran Damage to Romaine Lettuce 24 hr” value [1, 3] was 80.5% and the “Percent Lepidopteran Damage to Romaine Lettuce 24 hr” value [1, 4] was 83.0%. For the same compound, the “Percent Lepidopteran Damage to Romaine Lettuce 24 hr” value [1, 5] was 77.5%, the “Percent Lepidopteran Damage to Romaine Lettuce 24 hr” value [1, 6] was 72.0% and the “Percent Lepidopteran Damage to Romaine Lettuce 24 hr” value [1, 7] was 22.5%. The “Percent Lepidopteran Damage to Romaine Lettuce 24 hr” value [1, 8] was 28.0%, the “Percent Lepidopteran Damage to Romaine Lettuce 24 hr” value [1, 9] was 24.0% and the “Percent Lepidopteran Damage to Romaine Lettuce 24 hr” value [1, 10] was 21.0%. For the same compound, the “Percent Lepidopteran Damage to Romaine Lettuce 24 hr” value [1, 11] was 90.0%, the “Percent Lepidopteran Damage to Romaine Lettuce 24 hr” value [1, 12] was 78.0% and the “Percent Lepidopteran Damage to Romaine Lettuce 24 hr” value [1, 13] was 77.0%. For the same compound, the “Percent Lepidopteran Damage to Romaine Lettuce 24 hr” value [2, 3] was 53.5%, the “Percent Lepidopteran Damage to Romaine Lettuce 24 hr” value [2, 4] was 28.5% and the “Percent Lepidopteran Damage to Romaine Lettuce 24 hr” value [2, 5] was 17.0%. For the same compound, the “Percent Lepidopteran Damage to Romaine Lettuce 24 hr” value [2, 6] was 24.0%, the “Percent Lepidopteran Damage to Romaine Lettuce 24 hr” value [2, 7] was 23.5% and the “Percent Lepidopteran Damage to Romaine Lettuce 24 hr” value [2, 8] was 2.0%. The “Percent Lepidopteran Damage to Romaine Lettuce 24 hr” value [2, 9] was 3.0%, the “Percent Lepidopteran Damage to Romaine Lettuce 24 hr” value [2, 10] was 1.5% and the “Percent Lepidopteran Damage to Romaine Lettuce 24 hr” value [2, 11] was 1.5%. For the same compound, the “Percent Lepidopteran Damage to Romaine Lettuce 24 hr” value [2, 12] was 0.0%, the “Percent Lepidopteran Damage to Romaine Lettuce 24 hr” value [2, 13] was 85.5% and the “Percent Lepidopteran Damage to Romaine Lettuce 48 hr” value [2, 3] was 97.5%. For the same compound, the “Percent Lepidopteran Damage to Romaine Lettuce 48 hr” value [2, 4] was 79.0%, the “Percent Lepidopteran Damage to Romaine Lettuce 48 hr” value [2, 5] was 60.0% and the “Percent Lepidopteran Damage to Romaine Lettuce 48 hr” value [2, 6] was 95.0%. The “Percent Lepidopteran Damage to Romaine Lettuce 48 hr” value [2, 7] was 67.0%, the “Percent Lepidopteran Damage to Romaine Lettuce 48 hr” value [2, 8] was 4.5% and the “Percent Lepidopteran Damage to Romaine Lettuce 48 hr” value [2, 9] was 10.5%. For the same compound, the “Percent Lepidopteran Damage to Romaine Lettuce 48 hr” value [2, 10] was 3.0%, the “Percent Lepidopteran Damage to Romaine Lettuce 48 hr” value [2, 11] was 4.0% and the “Percent Lepidopteran Damage to Romaine Lettuce 48 hr” value [2, 12] was 0.5%. The “Percent Lepidopteran Damage to Romaine Lettuce 48 hr” value [2, 13] was 100.0%, the “Percent Lepidopteran Damage to Romaine Lettuce 72 hr” value [2, 3] was 100.0% and the “Percent Lepidopteran Damage to Romaine Lettuce 72 hr” value [2, 4] was 100.0%. The “Percent Lepidopteran Damage to Romaine Lettuce 72 hr” value [2, 5] was 89.0%, the “Percent Lepidopteran Damage to Romaine Lettuce 72 hr” value [2, 6] was 100.0% and the “Percent Lepidopteran Damage to Romaine Lettuce 72 hr” value [2, 7] was 91.0%. The “Percent Lepidopteran Damage to Romaine Lettuce 72 hr” value [2, 8] was 5.0%, the “Percent Lepidopteran Damage to Romaine Lettuce 72 hr” value [2, 9] was 21.0% and the “Percent Lepidopteran Damage to Romaine Lettuce 72 hr” value [2, 10] was 3.0%. For the same compound, the “Percent Lepidopteran Damage to Romaine Lettuce 72 hr” value [2, 11] was 4.5%, the “Percent Lepidopteran Damage to Romaine Lettuce 72 hr” value [2, 12] was 0.5% and the “Percent Lepidopteran Damage to Romaine Lettuce 72 hr” value [2, 13] was 100.0%.
